Reference: PMC8800105 (The Journal of Biological Chemistry, 2021)

Biological target: TRPA1 (Homo sapiens, UniProt O75762)
Assay: whole-cell patch clamp in HEK293
Format: cell-based

TRPA1, sequence (O75762 whole entry): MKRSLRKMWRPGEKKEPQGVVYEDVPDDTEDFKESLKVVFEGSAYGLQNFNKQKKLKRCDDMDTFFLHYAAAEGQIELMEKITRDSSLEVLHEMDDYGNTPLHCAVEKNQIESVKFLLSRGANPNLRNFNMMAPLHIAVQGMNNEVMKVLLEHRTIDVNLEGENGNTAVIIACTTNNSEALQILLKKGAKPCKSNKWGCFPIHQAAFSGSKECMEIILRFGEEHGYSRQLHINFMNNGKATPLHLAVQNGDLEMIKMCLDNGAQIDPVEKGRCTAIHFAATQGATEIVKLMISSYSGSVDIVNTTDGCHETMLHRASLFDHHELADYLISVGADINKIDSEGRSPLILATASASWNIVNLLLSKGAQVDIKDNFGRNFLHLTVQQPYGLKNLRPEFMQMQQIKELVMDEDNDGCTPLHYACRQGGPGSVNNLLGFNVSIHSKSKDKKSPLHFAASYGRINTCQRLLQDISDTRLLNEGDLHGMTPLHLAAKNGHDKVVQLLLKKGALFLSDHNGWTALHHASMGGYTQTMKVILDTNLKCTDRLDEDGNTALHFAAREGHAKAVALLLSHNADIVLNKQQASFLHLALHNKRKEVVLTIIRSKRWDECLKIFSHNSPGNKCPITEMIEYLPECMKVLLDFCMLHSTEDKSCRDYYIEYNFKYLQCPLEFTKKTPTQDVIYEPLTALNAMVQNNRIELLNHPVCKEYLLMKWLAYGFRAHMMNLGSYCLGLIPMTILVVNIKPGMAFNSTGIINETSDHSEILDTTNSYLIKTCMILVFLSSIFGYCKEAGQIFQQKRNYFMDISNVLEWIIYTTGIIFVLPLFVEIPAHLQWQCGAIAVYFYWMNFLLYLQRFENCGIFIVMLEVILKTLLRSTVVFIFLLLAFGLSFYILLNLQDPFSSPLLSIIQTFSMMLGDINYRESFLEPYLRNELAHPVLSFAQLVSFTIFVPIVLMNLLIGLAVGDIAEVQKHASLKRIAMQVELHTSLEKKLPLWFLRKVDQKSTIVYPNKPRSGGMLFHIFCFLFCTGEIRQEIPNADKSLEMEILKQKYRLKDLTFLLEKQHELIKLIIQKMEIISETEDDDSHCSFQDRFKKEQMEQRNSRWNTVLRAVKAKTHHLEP

O=[N+]([O-])c1ccc(Cl)c([N+](=O)[O-])c1 [DNCB]
EC50: 42.4 ± 20.9 µM

O=[N+]([O-])c1ccc(F)c([N+](=O)[O-])c1 [DNFB]
EC50: 2.3 ± 0.7 µM
